Data as given in patent publication US20230149919A1, “CASSETTE FOR PRESERVATION OF NATURAL AND BIOENGINEERED TISSUES” (TISSUE TESTING TECHNOLOGIES LLC, priority 2021, published 2023).

System: Epiderm construct
Assay: Viability of constructs with additives in culture medium before and after vitrification
Type: cell-based, Human
Settings: added to culture medium before and after vitrification, αT and QVD together
Protocol: Resazurin Assay: Was used to measure the metabolic activity and has the advantage of being non-toxic so constructs can be assessed before and several times after treatment. Resazurin dye (alamarBlue) was used to assess cell viability by measuring the oxidation/reduction reactions that take place within cells. The dye is added directly to the culture wells and the plates were incubated for 3 hours at 37° C. Upon reduction, the dye changes color and this was measured and quantified using a fluorescent microplate reader at an excitation wavelength of 544 nm and an emission wavelength of 590 nm.
The initial vitrification protocol was one that was developed for use with vein segments and rings. The process uses a 6 step (15-minute incubation) protocol to add the cryoprotectant (CPA) solution into the construct. The insert is then left in a glass scintillation vial in 1.5 mL vitrification solution with 0.3 mL solution inside the insert. The vials are cooled rapidly to −100° C. then slowly cooled to −135° C. where they are stored until rewarming. During rewarming, the samples are warmed slowly to −100° C. then rapidly to room temperature. The vitrification solution is removed using 7 sequential removal steps at 15 minutes each (FIG. 4, original protocol). Several changes were made to this protocol to produce better and sustainable viability for the Epiderm construct.
A series of changes were made to how the vitrification solution was loaded and unloaded from the construct. These changes included shorter incubation steps (5 minutes instead of 15), using a lower concentration of cryoprotectant to load the full-strength vitrification solution into the construct and also a more mechanical change that involved dilution of the full strength vitrification solution to half its concentration by a simple dilution step as opposed to removal from one solution to the next. This shortened the amount of time that the construct was exposed to the full-strength vitrification solution reducing potential cytotoxicity caused by exposure to the vitrification solution (modified protocol).
The arrived at protocol starts with an overnight incubation with αT and QVD. The next day, the constructs are vitrified using the 6-step addition protocol, 5 minutes each step, to add the cryoprotectant (CPA) solution into the construct. The insert is then left in the final vitrification solution with 0.3 mL solution inside the insert. The vials are cooled rapidly to −100° C. then slowly cooled to −135° C. where they are stored until rewarming. During rewarming, the samples are warmed slowly to −100° C. then rapidly to room temperature. The vitrification solution is removed using 7 sequential removal steps at 5 minutes each. […]

SMILES | Effect of additive on construct viability | Effect of additive on construct viability (listed as αT) | Effect of additive on construct viability (listed as QVD)
Cc1c(C)c2c(c(C)c1O)CC[C@@](C)(CCC[C@H](C)CCC[C@H](C)CCCC(C)C)O2 [α-tocopherol] | improved viability | significant improvement | 
CC(C)[C@H](NC(=O)c1ccc2ccccc2n1)C(=O)N[C@@H](CC(=O)O)C(=O)COc1c(F)cccc1F [Q-VD-OPH, quinoline-Val-Asp-difluorophenoxymethyl ketone] | improved viability |  | significant improvement
